# Experimental data as given in paper doi:10.1101/2024.06.05.597555v1 (biorxiv, 2024).
# Like-named read-outs stand apart in the source and are kept apart here.
# Legend:
# DENV-2 = assay: microbe, parasite or virus in culture; details: Dengue virus, DENV2, Vero, 48 h, read-out: % inhibition
# [1] = target: T1, DENV2proHeLa NS2B-NS3 protease (Dengue virus 2 Thailand/16681/84, UniProt P29990); assay: cell-based; design: species or system DENV2proHeLa (HeLa)
# [2] = target: T2, NS2B(H)-NS3pro (DENV-2 NS2B-NS3 protease) (Dengue virus 2 Thailand/NGS-C/1944, UniProt P14340); assay: biochemical; details: read-out: % inhibition
# T2 sequence (P14340 1394-1433 limits assumed): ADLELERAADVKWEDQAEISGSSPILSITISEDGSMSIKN
# T2 sequence (P14340 1476-1660 limits assumed): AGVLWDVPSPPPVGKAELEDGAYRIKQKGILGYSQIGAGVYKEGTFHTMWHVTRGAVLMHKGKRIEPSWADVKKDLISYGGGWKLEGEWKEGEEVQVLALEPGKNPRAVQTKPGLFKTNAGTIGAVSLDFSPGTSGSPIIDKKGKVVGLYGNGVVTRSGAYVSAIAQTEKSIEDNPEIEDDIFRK
# in vitro [3] = assay: in vitro; design: species or system DENV2proHeLa (HeLa); details: human, denv2prohela cells
# [4] = target: T2, NS2B(H)-NS3pro (DENV-2 NS2B-NS3 protease); details: read-out: IC50 (C7.5-HEPES AMC); AMC substrate, HEPES pH 7.5, CHAPS; inhibitor
# [5] = target: T1, DENV2proHeLa NS2B-NS3 protease; assay: cell-based; design: species or system DENV2proHeLa (HeLa); details: HeLa, read-out: % inhibition
# in vitro [6] = assay: in vitro; design: species or system DENV2proHeLa (HeLa); details: human, denv2prohela cells; remark: listed apart in the source
# [7] = target: T1, DENV2proHeLa NS2B-NS3 protease; assay: cell-based; design: species or system DENV2proHeLa (HeLa); details: HeLa, read-out: % inhibition; remark: listed apart in the source
# [8] = target: T1, DENV2proHeLa NS2B-NS3 protease; assay: cell-based
# [9] = target: T2, NS2B(H)-NS3pro (DENV-2 NS2B-NS3 protease); assay: fluorometric protease assay, AMC substrate; format: biochemical; details: pH 7.5, HEPES, CHAPS; substrate Bz-nKRR-AMC
# [10] = target: T2, NS2B(H)-NS3pro (DENV-2 NS2B-NS3 protease); assay: biochemical; details: read-out: % inhibition; remark: listed apart in the source
# [11] = target: T2, NS2B(H)-NS3pro (DENV-2 NS2B-NS3 protease); details: read-out: IC50 (C7.5-HEPES AMC); AMC substrate, HEPES pH 7.5, CHAPS; inhibitor; remark: listed apart in the source
# [12] = target: T1, DENV2proHeLa NS2B-NS3 protease; assay: cell-based; design: species or system DENV2proHeLa (HeLa); remark: listed apart in the source
# in vitro [13] = assay: in vitro; design: species or system DENV2proHeLa (HeLa); details: human, denv2prohela cells; remark: listed apart in the source
# [14] = target: T1, DENV2proHeLa NS2B-NS3 protease; assay: cell-based; design: species or system DENV2proHeLa (HeLa); details: HeLa, read-out: % inhibition; remark: listed apart in the source
# in vitro [15] = assay: in vitro; design: species or system DENV2proHeLa (HeLa); details: human, denv2prohela cells; remark: listed apart in the source
# [16] = target: T1, DENV2proHeLa NS2B-NS3 protease; assay: cell-based; design: species or system DENV2proHeLa (HeLa); details: HeLa, read-out: % inhibition; remark: listed apart in the source
# [17] = read-out: DENV2proHeLa EC50, inhibitor
# T1 sequence (P29990 1476-2093 limits assumed): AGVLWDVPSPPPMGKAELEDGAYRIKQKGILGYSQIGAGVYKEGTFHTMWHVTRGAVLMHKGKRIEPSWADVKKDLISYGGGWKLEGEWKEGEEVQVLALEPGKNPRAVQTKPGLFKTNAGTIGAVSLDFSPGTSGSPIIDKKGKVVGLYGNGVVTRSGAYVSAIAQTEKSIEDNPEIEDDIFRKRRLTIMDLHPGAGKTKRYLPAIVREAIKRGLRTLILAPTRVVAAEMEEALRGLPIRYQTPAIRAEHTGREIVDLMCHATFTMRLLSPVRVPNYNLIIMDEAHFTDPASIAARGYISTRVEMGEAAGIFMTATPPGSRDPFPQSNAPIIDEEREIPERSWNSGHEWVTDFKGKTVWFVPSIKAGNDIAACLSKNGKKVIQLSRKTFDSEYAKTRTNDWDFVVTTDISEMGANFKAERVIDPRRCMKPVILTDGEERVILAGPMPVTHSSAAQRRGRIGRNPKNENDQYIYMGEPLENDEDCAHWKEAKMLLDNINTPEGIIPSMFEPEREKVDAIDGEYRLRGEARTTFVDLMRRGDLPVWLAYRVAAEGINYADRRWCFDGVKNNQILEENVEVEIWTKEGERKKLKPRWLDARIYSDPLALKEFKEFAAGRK
# T1 sequence (P29990 1346-1475 partner limits assumed): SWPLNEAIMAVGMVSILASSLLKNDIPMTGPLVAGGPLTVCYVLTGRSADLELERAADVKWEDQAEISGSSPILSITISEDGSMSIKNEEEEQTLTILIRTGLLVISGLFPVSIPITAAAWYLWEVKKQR
compound,measurement,setting,value
CC(C)(C)NC(=O)C(=O)/C=C/c1c[nH]c2ccccc12 [GG-92],inhibition at 25 µM,DENV-2,40%
"NC(=O)c1cccc(NC(=O)[C@@H](NC(=O)Cc2ccc(Oc3ccccc3)cc2)c2ccc(OCc3ccccc3)cc2)c1 [compound 11, 11]",EC50,[1],6.9 µM
same,inhibition at 50 µM,[2],99%
same,CC50,in vitro [3],> 50 µM
same,IC50,[4],14 µM
same,inhibition at 12.5 µM,[5],78%
NC(=O)c1cccc(NC(=O)C(Cc2ccc3ccccc3c2)NC(=O)c2ccc(Oc3ccccc3)cc2)c1 (stereo not shown) [compound 65],CC50,in vitro [6],> 50 µM
same,inhibition at 12.5 µM,[7],55%
same,EC50,[8],7.4 µM
same,IC50,[9],5.9 µM
"NC(=O)c1cccc(NC(=O)C(CCc2ccccc2)NC(=O)c2ccc(Oc3ccccc3)cc2)c1 (stereo not shown) [compound 66, 66]",CC50,in vitro [6],> 50 µM
same,inhibition at 12.5 µM,[7],67%
"NC(=O)c1cccc(NC(=O)C(Cc2ccccc2)NC(=O)c2ccc(Oc3ccccc3)cc2)c1 (stereo not shown) [compound 70, 70]",CC50,in vitro [6],> 50 µM
same,inhibition at 12.5 µM,[7],55%
"CC(C(=O)N[C@H](C(=O)Nc1cccc(C(N)=O)c1)c1ccc(OCc2ccccc2)cc1)c1ccccc1 (stereo partly shown) [compound 28, 28]",inhibition at 50 µM,[10],83%
same,IC50,[11],17 µM
same,EC50,[12],8 µM
same,CC50,in vitro [13],> 50 µM
same,inhibition at 12.5 µM,[14],77%
NC(=O)c1cccc(NC(=O)[C@@H](NC(=O)c2ccc(Nc3ccccc3)cc2)c2ccc(OCc3ccccc3)cc2)c1 [compound 7],inhibition at 50 µM,[2],99%
same,inhibition at 25 µM,DENV-2,< 10%
same,CC50,in vitro [3],≥ 100 µM
same,inhibition at 12.5 µM,[5],93%
same,EC50,[8],0.7 µM
NC(=O)c1cccc(NC(=O)C(Cc2ccc(NCc3ccccc3)cc2)NC(=O)c2ccc(Oc3ccccc3)cc2)c1 (stereo not shown) [compound 68],CC50,in vitro [6],> 50 µM
same,IC50,[9],15 µM
"CC(C)Cc1ccc(C(C)C(=O)N[C@H](C(=O)Nc2cccc(C(N)=O)c2)c2ccc(OCc3ccccc3)cc2)cc1 (stereo partly shown) [compound 3, 3]",EC50,[1],3.8 µM
same,CC50,in vitro [3],> 25 µM
same,IC50,[4],8 µM
same,inhibition at 12.5 µM,[5],84%
"NC(=O)c1cccc(NC(=O)C(NC(=O)c2ccccc2)c2ccc(OCc3ccccc3)cc2)c1 (stereo not shown) [compound 42, 42]",inhibition at 50 µM,[10],56%
same,CC50,in vitro [13],> 100 µM
same,inhibition at 12.5 µM,[14],80%
"Cc1onc(-c2ccc(F)cc2)c1C(=O)N[C@H](C(=O)Nc1cccc(C(N)=O)c1)c1ccc(OCc2ccccc2)cc1 [compound 29, 29]",inhibition at 50 µM,[10],82%
same,IC50,[11],14 µM
same,CC50,in vitro [13],> 50 µM
same,inhibition at 12.5 µM,[14],64%
"COc1cc(C(=O)N[C@H](C(=O)Nc2cccc(C(N)=O)c2)c2ccc(OCc3ccccc3)cc2)ccc1Oc1ccccc1 [compound 8, 8]",EC50,[1],1.4 µM
same,inhibition at 50 µM,[2],99%
same,CC50,in vitro [3],> 100 µM
same,IC50,[4],12 µM
same,inhibition at 12.5 µM,[5],86%
"NC(=O)c1cccc(NC(=O)C(CCC(=O)Nc2ccccc2)NC(=O)c2ccc(Oc3ccccc3)cc2)c1 (stereo not shown) [compound 71, 71]",CC50,in vitro [6],> 50 µM
same,inhibition at 12.5 µM,[7],45%
"NC(=O)c1cccc(NC(=O)[C@@H](NC(=O)Cc2ccccc2Nc2c(Cl)cccc2Cl)c2ccc(OCc3ccccc3)cc2)c1 [compound 9, 9]",EC50,[1],8.6 µM
same,inhibition at 50 µM,[2],99%
same,CC50,in vitro [3],> 50 µM
same,IC50,[4],10 µM
same,inhibition at 12.5 µM,[5],60%
"NC(=O)c1cccc(NC(=O)[C@@H](NC(=O)OCc2ccccc2)c2ccc(OCc3ccccc3)cc2)c1 [compound 36, 36]",IC50,[11],28 µM
same,EC50,[12],5 µM
same,CC50,in vitro [13],≥ 50 µM
same,inhibition at 12.5 µM,[14],60%
"COc1ccc2cc([C@H](C)C(=O)N[C@H](C(=O)Nc3cccc(C(N)=O)c3)c3ccc(OCc4ccccc4)cc3)ccc2c1 [compound 10, 10]",EC50,[1]; [17],3.7 µM
same,CC50,in vitro [3],> 100 µM
same,IC50,[4],12 µM
same,inhibition at 12.5 µM,[5],71%
"NC(=O)c1cccc(NC(=O)[C@@H](NC(=O)c2ccc(-c3ccccc3)o2)c2ccc(OCc3ccccc3)cc2)c1 [compound 5, 5]",EC50,[1]; [17],5.9 µM
same,inhibition at 50 µM,[2],100%
same,inhibition at 25 µM,DENV-2,96%
same,CC50,in vitro [3],> 100 µM
same,IC50,[4],9.3 µM
same,inhibition at 12.5 µM,[5],85%
NC(=O)c1cccc(NC(=O)[C@@H](NC(=O)c2ccc(Oc3ccccc3)cc2)c2ccc(OCc3ccccc3)cc2)c1 [compound 1],IC50,[9],13 µM
"Cc1nc(-c2ccncc2)sc1C(=O)N[C@H](C(=O)Nc1cccc(C(N)=O)c1)c1ccc(OCc2ccccc2)cc1 [compound 35, 35]",inhibition at 50 µM,[10],69%
same,CC50,in vitro [13],> 50 µM
same,inhibition at 12.5 µM,[14],78%
"NC(=O)c1cccc(NC(=O)C(CC2CCCCC2)NC(=O)c2ccc(Oc3ccccc3)cc2)c1 (stereo not shown) [compound 64, 64]",CC50,in vitro [6],40 µM
same,inhibition at 12.5 µM,[7],82%
NC(=O)c1cccc(NC(=O)[C@@H](NC(=O)c2ccc(Oc3ccccc3)nc2)c2ccc(OCc3ccccc3)cc2)c1 [compound 33],inhibition at 50 µM,[10],70%
same,EC50,[8],8.8 µM
same,CC50,in vitro [13],> 100 µM
same,inhibition at 12.5 µM,[14],55%
same,IC50,[9],34 µM
COc1ccc(/C=C/C(=O)C(=O)NC(C)(C)C)cc1OC [GG-80-1],inhibition at 25 µM,DENV-2,97%
CC(CC(=O)N[C@H](C(=O)Nc1cccc(C(N)=O)c1)c1ccc(OCc2ccccc2)cc1)CC(C)(C)C (stereo partly shown) [compound 16],CC50,in vitro [15],≥ 100 µM
same,inhibition at 25 µM,DENV-2,98%
same,inhibition at 12.5 µM,[16],61%
same,EC50,[8],11 µM
same,IC50,[9],11 µM
"CC(C)CC(NC(=O)c1ccc(Oc2ccccc2)cc1)C(=O)Nc1cccc(C(N)=O)c1 (stereo not shown) [compound 73, 73]",CC50,in vitro [6],≥ 50 µM
same,inhibition at 12.5 µM,[7],36%
"CC(C(=O)N[C@H](C(=O)Nc1cccc(C(N)=O)c1)c1ccc(OCc2ccccc2)cc1)c1cccc(Oc2ccccc2)c1 (stereo partly shown) [compound 4, 4]",EC50,[1]; [17],4 µM
same,inhibition at 50 µM,[2],100%
same,inhibition at 25 µM,DENV-2,85%
same,CC50,in vitro [3],> 50 µM
same,IC50,[4],9.7 µM
same,inhibition at 12.5 µM,[5],86%
"CC(C(=O)NCC1(CC(=O)N[C@H](C(=O)Nc2cccc(C(N)=O)c2)c2ccc(OCc3ccccc3)cc2)CCCCC1)c1ccc2c(c1)[nH]c1ccc(Cl)cc12 (stereo partly shown) [compound 6, 6]",EC50,[1]; [17],2.9 µM
same,inhibition at 50 µM,[2],99%
same,CC50,in vitro [3],> 50 µM
same,IC50,[4],8 µM
same,inhibition at 12.5 µM,[5],60%
NC(=O)c1cccc(NC(=O)[C@@H](NC(=O)c2cc(O)n(-c3ccccc3)n2)c2ccc(OCc3ccccc3)cc2)c1 [compound 27],CC50,in vitro [15],> 50 µM
same,inhibition at 12.5 µM,[16],24%
same,IC50,[9],30 µM
"CC(C)CCC(=O)N1CCC(C(=O)N[C@H](C(=O)Nc2cccc(C(N)=O)c2)c2ccc(OCc3ccccc3)cc2)CC1 [compound 34, 34]",inhibition at 50 µM,[10],69%
same,EC50,[12],11 µM
same,CC50,in vitro [13],> 100 µM
same,inhibition at 12.5 µM,[14],53%
